Laboratory results reported in patent US8952024B2, “Herbicidal pyrimidone derivatives” (E I du Pont de Nemours and Company, priority 2009, dated 2015).

Tests used:
Assay type in all cases: in vivo
corn (Zea mays) = experiment: Test A pre-/postemergence plant response
Method in brief: (§1)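 Injury was scored visually after roughly ten days against untreated controls, 0 = no effect, 100 = complete control. Test chemicals in a surfactant-containing non-phytotoxic solvent were sprayed either onto soil preemergence or onto one- to two-leaf, 2–10 cm plants postemergence.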

[1] = system: barnyardgrass (Echinochloa crus-galli); experiment: Test A pre-/postemergence plant response
Method in brief: as §1

[2] = system: giant foxtail (Setaria faberii); experiment: Test A pre-/postemergence plant response
Method in brief: as §1

[3] = system: pigweed (Amaranthus retroflexus); experiment: Test A pre-/postemergence plant response
Method in brief: as §1

[4] = system: barnyardgrass (Echinochloa crus-galli); experiment: Test B flooded paddy test; conditions: for Plant response rating, Flood, Barnyardgrass: 250 g ai/ha, flooded paddy test, visual rating on 0 to 100 scale (0 no effect, 100 complete control) after 13 to 15 days; for Plant response rating, Barnyardgrass: Flood (flooded paddy test), 13 to 15 days; for Barnyardgrass plant response rating: Flood, 31 g ai/ha, scale 0 to 100 (0 no effect, 100 complete control)
Method in brief: (§2)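 Rice, umbrella sedge, ducksalad and barnyardgrass were grown to the 2-leaf stage, flooded to 3 cm, and compound was applied directly to the paddy water, with that depth kept throughout. After 13 to 15 days in the greenhouse, plants were visually rated against controls on a 0 (no effect) to 100 (complete control) scale.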

[5] = system: umbrella sedge (Cyperus difformis); experiment: Test B flooded paddy test; conditions: for Plant response rating, Flood, Sedge, Umbrella: 250 g ai/ha, flooded paddy test, visual rating on 0 to 100 scale (0 no effect, 100 complete control) after 13 to 15 days; for Plant response rating, Sedge, Umbrella: Flood (flooded paddy test), 13 to 15 days; for Sedge, Umbrella plant response rating: Flood, 31 g ai/ha, scale 0 to 100 (0 no effect, 100 complete control)
Method in brief: as §2

rice (Oryza sativa) = experiment: Test B flooded paddy test; conditions: for Plant response rating, Flood, Rice: 250 g ai/ha, flooded paddy test, visual rating on 0 to 100 scale (0 no effect, 100 complete control) after 13 to 15 days; for Plant response rating, Rice: Flood (flooded paddy test), 13 to 15 days; for Rice plant response rating: Flood, 31 g ai/ha, scale 0 to 100 (0 no effect, 100 complete control)
Method in brief: as §2

[6] = system: ducksalad (Heteranthera limosa); experiment: Test B flooded paddy test; conditions: for Plant response rating, Flood, Ducksalad: 250 g ai/ha, flooded paddy test, visual rating on 0 to 100 scale (0 no effect, 100 complete control) after 13 to 15 days; for Plant response rating, Ducksalad: Flood (flooded paddy test), 13 to 15 days; for Ducksalad plant response rating: Flood, 31 g ai/ha, scale 0 to 100 (0 no effect, 100 complete control)
Method in brief: as §2

[7] = Postemergence, 125 g ai/ha, 0 to 100 scale where 0 is no effect and 100 is complete control
[8] = Postemergence, 500 g ai/ha, 0 to 100 scale, 0 = no effect, 100 = complete control, approx. ten days
[9] = Preemergence, 125 g ai/ha, 0 to 100 scale, 0 = no effect, 100 = complete control
[10] = Preemergence, 500 g ai/ha, visual injury, 0 to 100 scale (0 no effect, 100 complete control), approx. ten days
[11] = 62 g ai/ha, scale of 0 to 100 where 0 is no effect and 100 is complete control
[12] = 125 g ai/ha, scale 0 to 100, 0 is no effect, 100 is complete control
[13] = Postemergence, 500 g ai/ha, visual injury, 0 to 100 scale (0 no effect, 100 complete control), approx. ten days
[14] = Preemergence, 500 g ai/ha, 0 to 100 scale, 0 = no effect, 100 = complete control

O=C1CCCC(O)=C1C(=O)c1cnc(-c2ccccc2)n(C2CCOCC2)c1=O [Compound 129] was tested, and the “Plant response rating, Corn” value (corn (Zea mays); [7]) was 20, the “Plant response rating, Corn” value (corn (Zea mays); [8]) was 50 and the “Plant response rating, Corn” value (corn (Zea mays); [9]) was 0. For the same compound, the “Plant response rating, Corn” value (corn (Zea mays); [10]) was 0, the “Plant response rating, Barnyardgrass” value [1, 7] was 90 and the “Plant response rating, Barnyardgrass” value [1, 8] was 100. For the same compound, the “Plant response rating, Barnyardgrass” value [1, 9] was 30, the “Plant response rating, Barnyardgrass” value [1, 10] was 100 and the “Plant response rating, Foxtail, Giant” value [2, 7] was 90. The “Plant response rating, Foxtail, Giant” value [2, 8] was 90, the “Plant response rating, Foxtail, Giant” value [2, 9] was 40 and the “Plant response rating, Foxtail, Giant” value [2, 10] was 80. The “Plant response rating, Pigweed” value [3, 7] was 100, the “Plant response rating, Pigweed” value [3, 8] was 100 and the “Plant response rating, Pigweed” value [3, 9] was 100. For the same compound, the “Plant response rating, Pigweed” value [3, 10] was 100, the “Plant response rating, Flood, Barnyardgrass” value [4] was 60 and the “Plant response rating, Barnyardgrass” value [4, 11] was 0. For the same compound, the “Plant response rating, Barnyardgrass” value [4, 12] was 10, the “Barnyardgrass plant response rating” value [4] was 0 and the “Plant response rating, Flood, Sedge, Umbrella” value [5] was 60. For the same compound, the “Plant response rating, Sedge, Umbrella” value [5, 11] was 0, the “Plant response rating, Sedge, Umbrella” value [5, 12] was 60 and the “Sedge, Umbrella plant response rating” value [5] was 0. The “Plant response rating, Flood, Rice” value (rice (Oryza sativa)) was 30, the “Plant response rating, Rice” value (rice (Oryza sativa); [11]) was 0 and the “Plant response rating, Rice” value (rice (Oryza sativa); [12]) was 0. The “Rice plant response rating” value (rice (Oryza sativa)) was 0, the “Plant response rating, Flood, Ducksalad” value [6] was 100 and the “Plant response rating, Ducksalad” value [6, 11] was 90. The “Plant response rating, Ducksalad” value [6, 12] was 90 and the “Ducksalad plant response rating” value [6] was 0.
O=C1CCCC(O)=C1C(=O)c1cnc(-c2ccccc2)n(C2CCCCCC2)c1=O [Compound 130] was tested, and the “Plant response rating, Corn” value (corn (Zea mays); [7]) was 10, the “Plant response rating, Corn” value (corn (Zea mays); [8]) was 50 and the “Plant response rating, Corn” value (corn (Zea mays); [9]) was 20. The “Plant response rating, Corn” value (corn (Zea mays); [10]) was 30, the “Plant response rating, Barnyardgrass” value [1, 7] was 100 and the “Plant response rating, Barnyardgrass” value [1, 8] was 100. For the same compound, the “Plant response rating, Barnyardgrass” value [1, 9] was 20, the “Plant response rating, Barnyardgrass” value [1, 10] was 90 and the “Plant response rating, Foxtail, Giant” value [2, 7] was 80. For the same compound, the “Plant response rating, Foxtail, Giant” value [2, 8] was 90, the “Plant response rating, Foxtail, Giant” value [2, 9] was 20 and the “Plant response rating, Foxtail, Giant” value [2, 10] was 90. The “Plant response rating, Pigweed” value [3, 7] was 100, the “Plant response rating, Pigweed” value [3, 8] was 100 and the “Plant response rating, Pigweed” value [3, 9] was 90. The “Plant response rating, Pigweed” value [3, 10] was 100, the “Plant response rating, Flood, Barnyardgrass” value [4] was 85 and the “Plant response rating, Barnyardgrass” value [4, 11] was 0. The “Plant response rating, Barnyardgrass” value [4, 12] was 0, the “Barnyardgrass plant response rating” value [4] was 0 and the “Plant response rating, Flood, Sedge, Umbrella” value [5] was 100. For the same compound, the “Plant response rating, Sedge, Umbrella” value [5, 11] was 60, the “Plant response rating, Sedge, Umbrella” value [5, 12] was 75 and the “Sedge, Umbrella plant response rating” value [5] was 40. For the same compound, the “Plant response rating, Flood, Rice” value (rice (Oryza sativa)) was 25, the “Plant response rating, Rice” value (rice (Oryza sativa); [11]) was 0 and the “Plant response rating, Rice” value (rice (Oryza sativa); [12]) was 0. The “Rice plant response rating” value (rice (Oryza sativa)) was 0, the “Plant response rating, Flood, Ducksalad” value [6] was 100 and the “Plant response rating, Ducksalad” value [6, 11] was 80. For the same compound, the “Plant response rating, Ducksalad” value [6, 12] was 80 and the “Ducksalad plant response rating” value [6] was 60.
In the case of Cc1ccc(-n2c(-c3cc(F)cc(F)c3)ncc(C(=O)C3=C(O)CCCC3=O)c2=O)cc1 [Compound 162], the “Plant response rating, Corn” value (corn (Zea mays); [7]) is reported as 0, the “Corn plant response rating” value (corn (Zea mays); [13]) is reported as 50 and the “Plant response rating, Corn” value (corn (Zea mays); [9]) is reported as 0. For the same compound, the “Plant response rating, Corn” value (corn (Zea mays); [14]) was 0, the “Plant response rating, Barnyardgrass” value [1, 7] was 100 and the “Barnyardgrass plant response rating” value [1, 13] was 100. The “Plant response rating, Barnyardgrass” value [1, 9] was 10, the “Plant response rating, Barnyardgrass” value [1, 14] was 100 and the “Plant response rating, Foxtail, Giant” value [2, 7] was 70. The “Foxtail, Giant plant response rating” value [2, 13] was 100, the “Plant response rating, Foxtail, Giant” value [2, 9] was 30 and the “Plant response rating, Foxtail, Giant” value [2, 14] was 90. For the same compound, the “Plant response rating, Pigweed” value [3, 7] was 100, the “Pigweed plant response rating” value [3, 13] was 100 and the “Plant response rating, Pigweed” value [3, 9] was 100. For the same compound, the “Plant response rating, Pigweed” value [3, 14] was 100, the “Plant response rating, Flood, Barnyardgrass” value [4] was 55 and the “Plant response rating, Barnyardgrass” value [4, 11] was 25. The “Plant response rating, Barnyardgrass” value [4, 12] was 40, the “Barnyardgrass plant response rating” value [4] was 20 and the “Plant response rating, Flood, Sedge, Umbrella” value [5] was 100. The “Plant response rating, Sedge, Umbrella” value [5, 11] was 100, the “Plant response rating, Sedge, Umbrella” value [5, 12] was 100 and the “Sedge, Umbrella plant response rating” value [5] was 95. The “Plant response rating, Flood, Rice” value (rice (Oryza sativa)) was 90, the “Plant response rating, Rice” value (rice (Oryza sativa); [11]) was 25 and the “Plant response rating, Rice” value (rice (Oryza sativa); [12]) was 90. The “Rice plant response rating” value (rice (Oryza sativa)) was 0, the “Plant response rating, Flood, Ducksalad” value [6] was 100 and the “Plant response rating, Ducksalad” value [6, 11] was 100. For the same compound, the “Plant response rating, Ducksalad” value [6, 12] was 100 and the “Ducksalad plant response rating” value [6] was 98.
With CCCn1c(-c2cc(Cl)cc(Cl)c2)ncc(C(=O)C2=C(O)CCCC2=O)c1=O [Compound 173] the “Plant response rating, Corn” value (corn (Zea mays); [7]) was 0, the “Corn plant response rating” value (corn (Zea mays); [13]) was 20 and the “Plant response rating, Corn” value (corn (Zea mays); [9]) was 0. The “Plant response rating, Corn” value (corn (Zea mays); [14]) was 10, the “Plant response rating, Barnyardgrass” value [1, 7] was 90 and the “Barnyardgrass plant response rating” value [1, 13] was 100. For the same compound, the “Plant response rating, Barnyardgrass” value [1, 9] was 0, the “Plant response rating, Barnyardgrass” value [1, 14] was 60 and the “Plant response rating, Foxtail, Giant” value [2, 7] was 70. For the same compound, the “Foxtail, Giant plant response rating” value [2, 13] was 90, the “Plant response rating, Foxtail, Giant” value [2, 9] was 20 and the “Plant response rating, Foxtail, Giant” value [2, 14] was 40. For the same compound, the “Plant response rating, Pigweed” value [3, 7] was 100, the “Pigweed plant response rating” value [3, 13] was 100 and the “Plant response rating, Pigweed” value [3, 9] was 50. For the same compound, the “Plant response rating, Pigweed” value [3, 14] was 90, the “Plant response rating, Barnyardgrass” value [4, 12] was 15 and the “Barnyardgrass plant response rating” value [4] was 0. The “Plant response rating, Sedge, Umbrella” value [5, 12] was 85, the “Sedge, Umbrella plant response rating” value [5] was 0 and the “Plant response rating, Rice” value (rice (Oryza sativa); [12]) was 15. For the same compound, the “Rice plant response rating” value (rice (Oryza sativa)) was 0, the “Plant response rating, Ducksalad” value [6, 12] was 75 and the “Ducksalad plant response rating” value [6] was 30.
